# Key:
# Test in all cases: Test C greenhouse herbicide test, pre- and postemergence
# Assay type in all cases: in vivo
# [1] = tested on: barnyardgrass (Echinochloa crus-galli)
# In short: (§1)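 Greenhouse pots; pre-em on seeded loam:sand blend, post-em on 2–18 cm plants (1–4 leaf) in sphagnum peat/vermiculite medium. Formulation: non-phytotoxic solvent + surfactant. Read-out: visual % control (0–100) vs controls at 13–15 d.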
# [2] = tested on: blackgrass (Alopecurus myosuroides)
# In short: as §1
# [3] = tested on: crabgrass, large (large crabgrass, Digitaria sanguinalis)
# In short: as §1
# [4] = tested on: foxtail, giant (giant foxtail, Setaria faberii)
# In short: as §1
# [5] = tested on: galium (catchweed bedstraw, Galium aparine)
# In short: as §1
# [6] = tested on: johnsongrass (Sorghum halepense)
# In short: as §1
# [7] = tested on: lambsquarters (Chenopodium album)
# In short: as §1
# [8] = tested on: morningglory (Ipomoea coccinea)
# In short: as §1
# [9] = tested on: nutsedge, yellow (yellow nutsedge, Cyperus esculentus)
# In short: as §1
# [10] = tested on: oilseed rape (Brassica napus)
# In short: as §1
# [11] = tested on: pigweed (Amaranthus retroflexus)
# In short: as §1
# [12] = tested on: ragweed (common ragweed, Ambrosia elatior)
# In short: as §1
# soybean (Glycine max) = tested on: soybean (Glycine max)
# In short: as §1
# [13] = tested on: velvetleaf (Abutilon theophrasti)
# In short: as §1
# [14] = tested on: waterhemp (common waterhemp, Amaranthus rudis)
# In short: as §1
# [15] = tested on: wheat (winter wheat, Triticum aestivum)
# In short: as §1
# [16] = Postemergence, 31 g ai/ha, scale 0 to 100 (0 no effect, 100 complete control)
# [17] = Postemergence, 125 g ai/ha, scale 0 to 100, 0 is no effect, 100 is complete control
# [18] = Postemergence, 250 g ai/ha, scale 0 to 100, 0 no effect, 100 complete control, 13 to 15 d
# [19] = Preemergence, 31 g ai/ha, scale 0 to 100, 0 is no effect, 100 is complete control
# [20] = Preemergence, 62 g ai/ha, scale 0 to 100, 0 is no effect, 100 is complete control
# [21] = Preemergence, 125 g ai/ha, scale 0 to 100, 0 is no effect, 100 is complete control
# [22] = Preemergence, 250 g ai/ha, scale 0 to 100 (0 no effect, 100 complete control)
# [23] = postemergence, 62 g ai/ha, scale 0 to 100, 0 no effect, 100 complete control
smiles,measurement,setting,value
CCCC(=O)Oc1c(C)nn(C)c(=O)c1-c1c(C)sc2c(C)cc(C)cc12 [Compound 106],"Plant response rating, Barnyardgrass",[1]; [16],15
same,"Plant response rating, Barnyardgrass",[1]; [17],20
same,"Plant response rating, Barnyardgrass",[1]; [18],40
same,"Plant response rating, Barnyardgrass",[1]; [19],25
same,"Plant response rating, Barnyardgrass",[1]; [20],45
same,"Plant response rating, Barnyardgrass",[1]; [21],85
same,Barnyardgrass plant response rating,[1]; [22],95
same,Barnyardgrass plant response rating,[1]; [23],15
same,"Plant response rating, Blackgrass",[2]; [16],45
same,"Plant response rating, Blackgrass",[2]; [17],60
same,"Plant response rating, Blackgrass",[2]; [18],75
same,"Plant response rating, Blackgrass",[2]; [19],10
same,"Plant response rating, Blackgrass",[2]; [20],50
same,"Plant response rating, Blackgrass",[2]; [21],90
same,Blackgrass plant response rating,[2]; [22],85
same,Blackgrass plant response rating,[2]; [23],50
same,"Plant response rating, Crabgrass, Large",[3]; [16],25
same,"Plant response rating, Crabgrass, Large",[3]; [17],30
same,"Plant response rating, Crabgrass, Large",[3]; [18],30
same,"Plant response rating, Crabgrass, Large",[3]; [19],70
same,"Plant response rating, Crabgrass, Large",[3]; [20],70
same,"Plant response rating, Crabgrass, Large",[3]; [21],75
same,"Crabgrass, Large plant response rating",[3]; [22],80
same,"Crabgrass, Large plant response rating",[3]; [23],40
same,"Plant response rating, Foxtail, Giant",[4]; [16],70
same,"Plant response rating, Foxtail, Giant",[4]; [17],90
same,"Plant response rating, Foxtail, Giant",[4]; [18],95
same,"Plant response rating, Foxtail, Giant",[4]; [19],85
same,"Plant response rating, Foxtail, Giant",[4]; [20],95
same,"Plant response rating, Foxtail, Giant",[4]; [21],100
same,"Foxtail, Giant plant response rating",[4]; [22],100
same,"Plant response rating, Galium",[5]; [16],95
same,"Plant response rating, Galium",[5]; [17],95
same,"Plant response rating, Galium",[5]; [18],100
same,"Plant response rating, Galium",[5]; [19],90
same,"Plant response rating, Galium",[5]; [20],90
same,"Plant response rating, Galium",[5]; [21],95
same,Galium plant response rating,[5]; [22],95
same,"Plant response rating, Johnsongrass",[6]; [16],5
same,"Plant response rating, Johnsongrass",[6]; [17],10
same,"Plant response rating, Johnsongrass",[6]; [18],10
same,"Plant response rating, Johnsongrass",[6]; [19],5
same,"Plant response rating, Johnsongrass",[6]; [20],5
same,"Plant response rating, Johnsongrass",[6]; [21],5
same,Johnsongrass plant response rating,[6]; [22],15
same,"Plant response rating, Lambsquarters",[7]; [16],85
same,"Plant response rating, Lambsquarters",[7]; [17],95
same,"Plant response rating, Lambsquarters",[7]; [18],98
same,"Plant response rating, Lambsquarters",[7]; [19],90
same,"Plant response rating, Lambsquarters",[7]; [20],90
same,"Plant response rating, Lambsquarters",[7]; [21],100
same,Lambsquarters plant response rating,[7]; [22],100
same,"Plant response rating, Morningglory",[8]; [16],100
same,"Plant response rating, Morningglory",[8]; [17],100
same,"Plant response rating, Morningglory",[8]; [18],98
same,"Plant response rating, Morningglory",[8]; [19],85
same,"Plant response rating, Morningglory",[8]; [20],90
same,"Plant response rating, Morningglory",[8]; [21],98
same,Morningglory plant response rating,[8]; [22],98
same,"Plant response rating, Nutsedge, Yellow",[9]; [16],65
same,"Plant response rating, Nutsedge, Yellow",[9]; [17],90
same,"Plant response rating, Nutsedge, Yellow",[9]; [18],80
same,"Plant response rating, Nutsedge, Yellow",[9]; [19],60
same,"Plant response rating, Nutsedge, Yellow",[9]; [20],70
same,"Plant response rating, Nutsedge, Yellow",[9]; [21],80
same,"Nutsedge, Yellow plant response rating",[9]; [22],90
same,"Plant response rating, Oilseed Rape",[10]; [16],60
same,"Plant response rating, Oilseed Rape",[10]; [17],85
same,"Plant response rating, Oilseed Rape",[10]; [18],95
same,"Plant response rating, Oilseed Rape",[10]; [19],0
same,"Plant response rating, Oilseed Rape",[10]; [20],0
same,"Plant response rating, Oilseed Rape",[10]; [21],30
same,Oilseed Rape plant response rating,[10]; [22],90
same,"Plant response rating, Pigweed",[11]; [16],70
same,"Plant response rating, Pigweed",[11]; [17],90
same,"Plant response rating, Pigweed",[11]; [18],90
same,"Plant response rating, Pigweed",[11]; [19],98
same,"Plant response rating, Pigweed",[11]; [20],98
same,"Plant response rating, Pigweed",[11]; [21],100
same,Pigweed plant response rating,[11]; [22],100
same,"Plant response rating, Ragweed",[12]; [16],80
same,"Plant response rating, Ragweed",[12]; [17],75
same,"Plant response rating, Ragweed",[12]; [18],98
same,"Plant response rating, Ragweed",[12]; [19],85
same,"Plant response rating, Ragweed",[12]; [20],90
same,"Plant response rating, Ragweed",[12]; [21],95
same,Ragweed plant response rating,[12]; [22],95
same,"Plant response rating, Soybean",soybean (Glycine max); [16],0
same,"Plant response rating, Soybean",soybean (Glycine max); [17],0
same,"Plant response rating, Soybean",soybean (Glycine max); [18],10
same,"Plant response rating, Soybean",soybean (Glycine max); [19],0
same,"Plant response rating, Soybean",soybean (Glycine max); [20],0
same,"Plant response rating, Soybean",soybean (Glycine max); [21],0
same,Soybean plant response rating,soybean (Glycine max); [22],0
same,"Plant response rating, Velvetleaf",[13]; [16],80
same,"Plant response rating, Velvetleaf",[13]; [17],90
same,"Plant response rating, Velvetleaf",[13]; [18],100
same,"Plant response rating, Velvetleaf",[13]; [19],40
same,"Plant response rating, Velvetleaf",[13]; [20],60
same,"Plant response rating, Velvetleaf",[13]; [21],85
same,Velvetleaf plant response rating,[13]; [22],90
same,"Plant response rating, Waterhemp",[14]; [16],65
same,"Plant response rating, Waterhemp",[14]; [17],75
same,"Plant response rating, Waterhemp",[14]; [18],80
same,"Plant response rating, Waterhemp",[14]; [19],70
same,"Plant response rating, Waterhemp",[14]; [20],75
same,"Plant response rating, Waterhemp",[14]; [21],80
same,Waterhemp plant response rating,[14]; [22],90
same,"Plant response rating, Wheat",[15]; [16],0
same,"Plant response rating, Wheat",[15]; [17],0
same,"Plant response rating, Wheat",[15]; [18],5
same,"Plant response rating, Wheat",[15]; [19],15
same,"Plant response rating, Wheat",[15]; [20],0
same,"Plant response rating, Wheat",[15]; [21],0
same,Wheat plant response rating,[15]; [22],0

# Source: patent publication US10597388B2, “Pyridazinone herbicides” (FMC CORPORATION, priority 2014, dated 2020)
